# Results taken from US20250223268A1, “4-Methylsulfonylbenzamide Compound, Preparation Method, Herbicidal Composition And Use” (Jiangsu Flag Chemical Industry Co., Ltd., priority 2022, published 2025).
# Experiments:
# Experiment in all cases: Greenhouse herbicidal activity assay, post-emergence
# Assay type in all cases: in vivo
# Conditions in all cases: Post-emergence test, rate 150 g a.i./hm^2; grade by fresh weight inhibition rate
# [1] = tested on: Eclipta prostrata
# In short: (§1)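 Scores reflect fresh weight inhibition assessed 14-21 days after treatment, with grade A meaning ≥80% to 100% and grade E meaning <20%. Plants, raised in nutrient-soil pots inside a growth chamber, were sprayed on the foliage at the 3-6 leaf stage.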
# [2] = tested on: Echinochloa crusgalli
# In short: as §1
# [3] = tested on: Digitaria sanguinalis
# In short: as §1
# [4] = tested on: Leptochloa chinensis
# In short: as §1
# [5] = tested on: Cyperus iria
# In short: as §1
SMILES,"Control efficacy grade, Eclipta prostrata [1]","Control efficacy grade, Echinochloa crusgalli [2]","Control efficacy grade, Digitaria sanguinalis [3]","Control efficacy grade, Leptochloa chinensis [4]","Control efficacy grade, Cyperus iria [5]"
CS(=O)(=O)c1ccc(C(=O)Nc2nnco2)c(Cl)c1[S+]([O-])CC(F)F (racemic) [Compound 3-329],A (Fresh weight inhibition rate≥80% to 100%),A (Fresh weight inhibition rate≥80% to 100%),A (Fresh weight inhibition rate≥80% to 100%),A (Fresh weight inhibition rate≥80% to 100%),A (Fresh weight inhibition rate≥80% to 100%)
C=CC[S+]([O-])c1c(S(C)(=O)=O)ccc(C(=O)Nc2nnco2)c1Cl (racemic) [Compound 3-339],A (Fresh weight inhibition rate≥80% to 100%),A (Fresh weight inhibition rate≥80% to 100%),A (Fresh weight inhibition rate≥80% to 100%),A (Fresh weight inhibition rate≥80% to 100%),A (Fresh weight inhibition rate≥80% to 100%)
CS(=O)(=O)c1ccc(C(=O)Nc2nnco2)c(Cl)c1[S+]([O-])CCCl (racemic) [Compound 3-379],A (Fresh weight inhibition rate≥80% to 100%),A (Fresh weight inhibition rate≥80% to 100%),A (Fresh weight inhibition rate≥80% to 100%),A (Fresh weight inhibition rate≥80% to 100%),A (Fresh weight inhibition rate≥80% to 100%)
CCC[S+]([O-])c1c(S(C)(=O)=O)ccc(C(=O)Nc2nnc(CC)o2)c1Cl (racemic) [Compound 3-384],A (Fresh weight inhibition rate≥80% to 100%),A (Fresh weight inhibition rate≥80% to 100%),A (Fresh weight inhibition rate≥80% to 100%),A (Fresh weight inhibition rate≥80% to 100%),A (Fresh weight inhibition rate≥80% to 100%)
CCCC[S+]([O-])c1c(S(C)(=O)=O)ccc(C(=O)Nc2nnc(CC)o2)c1Cl (racemic) [Compound 3-394],A (Fresh weight inhibition rate≥80% to 100%),A (Fresh weight inhibition rate≥80% to 100%),A (Fresh weight inhibition rate≥80% to 100%),A (Fresh weight inhibition rate≥80% to 100%),A (Fresh weight inhibition rate≥80% to 100%)
CCc1nnc(NC(=O)c2ccc(S(C)(=O)=O)c([S+]([O-])CC(C)C)c2Cl)o1 (racemic) [Compound 3-410],A (Fresh weight inhibition rate≥80% to 100%),C (Fresh weight inhibition rate≥40% to <60%),A (Fresh weight inhibition rate≥80% to 100%),A (Fresh weight inhibition rate≥80% to 100%),A (Fresh weight inhibition rate≥80% to 100%)
CCc1nnc(NC(=O)c2ccc(S(C)(=O)=O)c([S+]([O-])CC3CC3)c2Cl)o1 (racemic) [Compound 3-415],A (Fresh weight inhibition rate≥80% to 100%),A (Fresh weight inhibition rate≥80% to 100%),A (Fresh weight inhibition rate≥80% to 100%),A (Fresh weight inhibition rate≥80% to 100%),A (Fresh weight inhibition rate≥80% to 100%)
CCc1nnc(NC(=O)c2ccc(S(C)(=O)=O)c([S+]([O-])C3CC3)c2Cl)o1 (racemic) [Compound 3-420],A (Fresh weight inhibition rate≥80% to 100%),A (Fresh weight inhibition rate≥80% to 100%),A (Fresh weight inhibition rate≥80% to 100%),A (Fresh weight inhibition rate≥80% to 100%),A (Fresh weight inhibition rate≥80% to 100%)
CCc1nnc(NC(=O)c2ccc(S(C)(=O)=O)c([S+]([O-])C3CCC3)c2Cl)o1 (racemic) [Compound 3-425],A (Fresh weight inhibition rate≥80% to 100%),A (Fresh weight inhibition rate≥80% to 100%),A (Fresh weight inhibition rate≥80% to 100%),A (Fresh weight inhibition rate≥80% to 100%),A (Fresh weight inhibition rate≥80% to 100%)
CCc1nnc(NC(=O)c2ccc(S(C)(=O)=O)c([S+]([O-])C3CCCC3)c2Cl)o1 (racemic) [Compound 3-430],A (Fresh weight inhibition rate≥80% to 100%),A (Fresh weight inhibition rate≥80% to 100%),A (Fresh weight inhibition rate≥80% to 100%),A (Fresh weight inhibition rate≥80% to 100%),A (Fresh weight inhibition rate≥80% to 100%)
CCc1nnc(NC(=O)c2ccc(S(C)(=O)=O)c([S+]([O-])C3CCCCC3)c2Cl)o1 (racemic) [Compound 3-435],A (Fresh weight inhibition rate≥80% to 100%),A (Fresh weight inhibition rate≥80% to 100%),A (Fresh weight inhibition rate≥80% to 100%),A (Fresh weight inhibition rate≥80% to 100%),A (Fresh weight inhibition rate≥80% to 100%)
CCc1nnc(NC(=O)c2ccc(S(C)(=O)=O)c([S+]([O-])CC(F)(F)F)c2Cl)o1 (racemic) [Compound 3-440],A (Fresh weight inhibition rate≥80% to 100%),A (Fresh weight inhibition rate≥80% to 100%),A (Fresh weight inhibition rate≥80% to 100%),A (Fresh weight inhibition rate≥80% to 100%),A (Fresh weight inhibition rate≥80% to 100%)
CCc1nnc(NC(=O)c2ccc(S(C)(=O)=O)c([S+]([O-])CC(F)F)c2Cl)o1 (racemic) [Compound 3-445],A (Fresh weight inhibition rate≥80% to 100%),A (Fresh weight inhibition rate≥80% to 100%),A (Fresh weight inhibition rate≥80% to 100%),A (Fresh weight inhibition rate≥80% to 100%),A (Fresh weight inhibition rate≥80% to 100%)
C=CC[S+]([O-])c1c(S(C)(=O)=O)ccc(C(=O)Nc2nnc(CC)o2)c1Cl (racemic) [Compound 3-455],A (Fresh weight inhibition rate≥80% to 100%),A (Fresh weight inhibition rate≥80% to 100%),A (Fresh weight inhibition rate≥80% to 100%),A (Fresh weight inhibition rate≥80% to 100%),A (Fresh weight inhibition rate≥80% to 100%)
CCc1nnc(NC(=O)c2ccc(S(C)(=O)=O)c([S+]([O-])CCCl)c2Cl)o1 (racemic) [Compound 3-495],A (Fresh weight inhibition rate≥80% to 100%),A (Fresh weight inhibition rate≥80% to 100%),A (Fresh weight inhibition rate≥80% to 100%),A (Fresh weight inhibition rate≥80% to 100%),A (Fresh weight inhibition rate≥80% to 100%)
CC(C)c1nnc(NC(=O)c2ccc(S(C)(=O)=O)c([S+]([O-])CC3CC3)c2Cl)o1 (racemic) [Compound 3-531],A (Fresh weight inhibition rate≥80% to 100%),A (Fresh weight inhibition rate≥80% to 100%),A (Fresh weight inhibition rate≥80% to 100%),A (Fresh weight inhibition rate≥80% to 100%),A (Fresh weight inhibition rate≥80% to 100%)
CC(C)c1nnc(NC(=O)c2ccc(S(C)(=O)=O)c([S+]([O-])C3CC3)c2Cl)o1 (racemic) [Compound 3-536],A (Fresh weight inhibition rate≥80% to 100%),A (Fresh weight inhibition rate≥80% to 100%),B (Fresh weight inhibition rate≥260% to <80%),A (Fresh weight inhibition rate≥80% to 100%),A (Fresh weight inhibition rate≥80% to 100%)
CC(C)c1nnc(NC(=O)c2ccc(S(C)(=O)=O)c([S+]([O-])C3CCC3)c2Cl)o1 (racemic) [Compound 3-541],A (Fresh weight inhibition rate≥80% to 100%),C (Fresh weight inhibition rate≥40% to <60%),B (Fresh weight inhibition rate≥260% to <80%),A (Fresh weight inhibition rate≥80% to 100%),A (Fresh weight inhibition rate≥80% to 100%)
CC(C)c1nnc(NC(=O)c2ccc(S(C)(=O)=O)c([S+]([O-])CC(F)(F)F)c2Cl)o1 (racemic) [Compound 3-556],A (Fresh weight inhibition rate≥80% to 100%),B (Fresh weight inhibition rate≥260% to <80%),B (Fresh weight inhibition rate≥260% to <80%),A (Fresh weight inhibition rate≥80% to 100%),A (Fresh weight inhibition rate≥80% to 100%)
